Bridge positions count the residues as written; N and C are the ends. Square brackets hold non-standard residues; d marks the D form. Peptide text beside a SMILES is read from it. 1Nal = N[C@@H](Cc1cccc2ccccc12)C(=O)O
Experiments:
[1] = system: thapsigargin-induced IFN-g production in human whole blood; type: cell-based; conditions: read-out: Analogue Activity (IC50) WB/IFNg
[2] = system: thapsigargin-induced IL-2 production in human whole blood; conditions: read-out: Analogue Activity (IC50) WB/IL-2

Row | Compound | IC50 [1] | IC50 [2]
1 | CC[C@H](C)[C@@H]1NC(=O)[C@H](CCCCN)NC(=O)[C@@H](NC(=O)[C@H](CCCCN)NC(=O)[C@@H](NC(=O)[C@H](CC(N)=O)NC(=O)[C@H](CCCNC(=N)N)NC(=O)[C@@H](NC(=O)[C@@H](NC(=O)CN)C(C)C)[C@@H](C)CC)C(C)C)CSSC[C@@H]2NC(=O)[C@H](CCCCN)NC(=O)CNC(=O)[C@H](Cc3ccccc3)NC(=O)[C@H](CCCNC(=N)N)NC(=O)[C@H](CCSC)NC(=O)CNC(=O)[C@H](C)NC(=O)[C@H](CCCCN)NC(=O)[C@H](CCCCN)NC(=O)[C@@H]3CSSC[C@@H](C(=O)N[C@H](C(=O)N4CCC[C@H]4C(=O)N[C@@H](CCCCN)C(=O)O)[C@@H](C)O)NC(=O)[C@H](Cc4c[nH]cn4)NC(=O)[C@H](CSSC[C@H](NC(=O)[C@H](CCC(N)=O)NC(=O)[C@H](CCCNC(=N)N)NC(=O)[C@H](CO)NC1=O)C(=O)N[C@@H](CC(C)C)C(=O)N[C@@H](CCC(=O)O)C(=O)N1CCC[C@H]1C(=O)N3)NC(=O)[C@H](CCCCN)NC(=O)CNC(=O)[C@H](CC(N)=O)NC(=O)[C@H](CCSC)NC2=O [I4R] (H-GVIRNVKCKISRQCLEPCKKAGMRFGKCMNGKCHCTPK-OH; disulfide 8-28, 14-33, 18-35) | 175 pM | 168 pM
2 | CC[C@H](C)[C@H](NC(=O)[C@@H](NC(=O)CN)C(C)C)C(=O)N[C@H](C(=O)N[C@@H](CC(N)=O)C(=O)N[C@H](C(=O)N[C@@H](CCCCN)C(=O)N[C@H]1CSSC[C@@H]2NC(=O)[C@H](CCCCN)NC(=O)CNC(=O)[C@H](Cc3ccccc3)NC(=O)[C@H](CCCNC(=N)N)NC(=O)[C@H](CCSC)NC(=O)CNC(=O)[C@H](C)NC(=O)[C@H](CCCCN)NC(=O)[C@H](CCCCN)NC(=O)[C@@H]3CSSC[C@@H](C(=O)N[C@H](C(=O)N4CCC[C@H]4C(=O)N[C@@H](CCCCN)C(=O)O)[C@@H](C)O)NC(=O)[C@H](Cc4c[nH]cn4)NC(=O)[C@H](CSSC[C@H](NC(=O)[C@H](CCC(N)=O)NC(=O)[C@H](CCCNC(=N)N)NC(=O)[C@H](CO)NC(=O)[C@H](C)NC(=O)[C@H](CCCCN)NC1=O)C(=O)N[C@@H](CC(C)C)C(=O)N[C@@H](CCC(=O)O)C(=O)N1CCC[C@H]1C(=O)N3)NC(=O)[C@H](CCCCN)NC(=O)CNC(=O)[C@H](CC(N)=O)NC(=O)[C@H](CCSC)NC2=O)C(C)C)[C@@H](C)CC [I10A] (H-GVIINVKCKASRQCLEPCKKAGMRFGKCMNGKCHCTPK-OH; disulfide 8-28, 14-33, 18-35) | 29.6 pM | 50 pM
3 | CC[C@H](C)[C@H](NC(=O)[C@@H](NC(=O)CN)C(C)C)C(=O)N[C@H](C(=O)N[C@@H](CC(N)=O)C(=O)N[C@H](C(=O)N[C@@H](CCCCN)C(=O)N[C@H]1CSSC[C@@H]2NC(=O)[C@H](CCCCN)NC(=O)CNC(=O)[C@H](Cc3ccccc3)NC(=O)[C@H](CCCNC(=N)N)NC(=O)[C@H](CCSC)NC(=O)CNC(=O)[C@H](C)NC(=O)[C@H](CCCCN)NC(=O)[C@H](CCCCN)NC(=O)[C@@H]3CSSC[C@@H](C(=O)N[C@H](C(=O)N4CCC[C@H]4C(=O)N[C@@H](CCCCN)C(=O)O)[C@@H](C)O)NC(=O)[C@H](Cc4c[nH]cn4)NC(=O)[C@H](CSSC[C@H](NC(=O)[C@H](CCC(N)=O)NC(=O)[C@H](CCCNC(=N)N)NC(=O)[C@H](CO)NC(=O)[C@H](CCC(=O)O)NC(=O)[C@H](CCCCN)NC1=O)C(=O)N[C@@H](CC(C)C)C(=O)N[C@@H](CCC(=O)O)C(=O)N1CCC[C@H]1C(=O)N3)NC(=O)[C@H](CCCCN)NC(=O)CNC(=O)[C@H](CC(N)=O)NC(=O)[C@H](CCSC)NC2=O)C(C)C)[C@@H](C)CC [I10E] (H-GVIINVKCKESRQCLEPCKKAGMRFGKCMNGKCHCTPK-OH; disulfide 8-28, 14-33, 18-35) | 2740 pM | 2570 pM
4 | CC[C@H](C)[C@H](NC(=O)[C@@H](NC(=O)CN)C(C)C)C(=O)N[C@H](C(=O)N[C@@H](CC(N)=O)C(=O)N[C@H](C(=O)N[C@@H](CCCCN)C(=O)N[C@H]1CSSC[C@@H]2NC(=O)[C@H](CCCCN)NC(=O)CNC(=O)[C@H](Cc3ccccc3)NC(=O)[C@H](CCCNC(=N)N)NC(=O)[C@H](CCSC)NC(=O)CNC(=O)[C@H](C)NC(=O)[C@H](CCCCN)NC(=O)[C@H](CCCCN)NC(=O)[C@@H]3CSSC[C@@H](C(=O)N[C@H](C(=O)N4CCC[C@H]4C(=O)N[C@@H](CCCCN)C(=O)O)[C@@H](C)O)NC(=O)[C@H](Cc4c[nH]cn4)NC(=O)[C@H](CSSC[C@H](NC(=O)[C@H](CCC(N)=O)NC(=O)[C@H](CCCNC(=N)N)NC(=O)[C@H](CO)NC(=O)[C@H](CCCNC(=N)N)NC(=O)[C@H](CCCCN)NC1=O)C(=O)N[C@@H](CC(C)C)C(=O)N[C@@H](CCC(=O)O)C(=O)N1CCC[C@H]1C(=O)N3)NC(=O)[C@H](CCCCN)NC(=O)CNC(=O)[C@H](CC(N)=O)NC(=O)[C@H](CCSC)NC2=O)C(C)C)[C@@H](C)CC [I10R] (H-GVIINVKCKRSRQCLEPCKKAGMRFGKCMNGKCHCTPK-OH; disulfide 8-28, 14-33, 18-35) | 474 pM | 307 pM
5 | CC[C@H](C)[C@@H]1NC(=O)[C@H](CCCCN)NC(=O)[C@@H](NC(=O)[C@H](C)NC(=O)[C@@H](NC(=O)[C@H](CC(N)=O)NC(=O)[C@@H](NC(=O)[C@@H](NC(=O)[C@@H](NC(=O)CN)C(C)C)[C@@H](C)CC)[C@@H](C)CC)C(C)C)CSSC[C@@H]2NC(=O)[C@H](CCCCN)NC(=O)CNC(=O)[C@H](Cc3ccccc3)NC(=O)[C@H](CCCNC(=N)N)NC(=O)[C@H](CCSC)NC(=O)CNC(=O)[C@H](C)NC(=O)[C@H](CCCCN)NC(=O)[C@H](CCCCN)NC(=O)[C@@H]3CSSC[C@@H](C(=O)N[C@H](C(=O)N4CCC[C@H]4C(=O)N[C@@H](CCCCN)C(=O)O)[C@@H](C)O)NC(=O)[C@H](Cc4c[nH]cn4)NC(=O)[C@H](CSSC[C@H](NC(=O)[C@H](CCC(N)=O)NC(=O)[C@H](CCCNC(=N)N)NC(=O)[C@H](CO)NC1=O)C(=O)N[C@@H](CC(C)C)C(=O)N[C@@H](CCC(=O)O)C(=O)N1CCC[C@H]1C(=O)N3)NC(=O)[C@H](CCCCN)NC(=O)CNC(=O)[C@H](CC(N)=O)NC(=O)[C@H](CCSC)NC2=O [K7A] (H-GVIINVACKISRQCLEPCKKAGMRFGKCMNGKCHCTPK-OH; disulfide 8-28, 14-33, 18-35) | 59.1 pM | 67.5 pM
6 | CC[C@H](C)[C@@H]1NC(=O)[C@H](CCCCN)NC(=O)[C@@H](NC(=O)[C@H](CCC(=O)O)NC(=O)[C@@H](NC(=O)[C@H](CC(N)=O)NC(=O)[C@@H](NC(=O)[C@@H](NC(=O)[C@@H](NC(=O)CN)C(C)C)[C@@H](C)CC)[C@@H](C)CC)C(C)C)CSSC[C@@H]2NC(=O)[C@H](CCCCN)NC(=O)CNC(=O)[C@H](Cc3ccccc3)NC(=O)[C@H](CCCNC(=N)N)NC(=O)[C@H](CCSC)NC(=O)CNC(=O)[C@H](C)NC(=O)[C@H](CCCCN)NC(=O)[C@H](CCCCN)NC(=O)[C@@H]3CSSC[C@@H](C(=O)N[C@H](C(=O)N4CCC[C@H]4C(=O)N[C@@H](CCCCN)C(=O)O)[C@@H](C)O)NC(=O)[C@H](Cc4c[nH]cn4)NC(=O)[C@H](CSSC[C@H](NC(=O)[C@H](CCC(N)=O)NC(=O)[C@H](CCCNC(=N)N)NC(=O)[C@H](CO)NC1=O)C(=O)N[C@@H](CC(C)C)C(=O)N[C@@H](CCC(=O)O)C(=O)N1CCC[C@H]1C(=O)N3)NC(=O)[C@H](CCCCN)NC(=O)CNC(=O)[C@H](CC(N)=O)NC(=O)[C@H](CCSC)NC2=O [K7E] (H-GVIINVECKISRQCLEPCKKAGMRFGKCMNGKCHCTPK-OH; disulfide 8-28, 14-33, 18-35) | 68 pM | 58 pM
7 | CC[C@H](C)[C@@H]1NC(=O)[C@H](CCCCN)NC(=O)[C@@H](NC(=O)[C@H](Cc2cccc3ccccc23)NC(=O)[C@@H](NC(=O)[C@H](CC(N)=O)NC(=O)[C@@H](NC(=O)[C@@H](NC(=O)[C@@H](NC(=O)CN)C(C)C)[C@@H](C)CC)[C@@H](C)CC)C(C)C)CSSC[C@@H]2NC(=O)[C@H](CCCCN)NC(=O)CNC(=O)[C@H](Cc3ccccc3)NC(=O)[C@H](CCCNC(=N)N)NC(=O)[C@H](CCSC)NC(=O)CNC(=O)[C@H](C)NC(=O)[C@H](CCCCN)NC(=O)[C@H](CCCCN)NC(=O)[C@@H]3CSSC[C@@H](C(=O)N[C@H](C(=O)N4CCC[C@H]4C(=O)N[C@@H](CCCCN)C(=O)O)[C@@H](C)O)NC(=O)[C@H](Cc4c[nH]cn4)NC(=O)[C@H](CSSC[C@H](NC(=O)[C@H](CCC(N)=O)NC(=O)[C@H](CCCNC(=N)N)NC(=O)[C@H](CO)NC1=O)C(=O)N[C@@H](CC(C)C)C(=O)N[C@@H](CCC(=O)O)C(=O)N1CCC[C@H]1C(=O)N3)NC(=O)[C@H](CCCCN)NC(=O)CNC(=O)[C@H](CC(N)=O)NC(=O)[C@H](CCSC)NC2=O [K7Nal] (H-GVIINV[1Nal]CKISRQCLEPCKKAGMRFGKCMNGKCHCTPK-OH; disulfide 8-28, 14-33, 18-35) | 246 pM | 222 pM
8 | CC[C@H](C)[C@@H]1NC(=O)[C@H](CCCCN)NC(=O)[C@@H](NC(=O)[C@H](CCCNC(=N)N)NC(=O)[C@@H](NC(=O)[C@H](CC(N)=O)NC(=O)[C@@H](NC(=O)[C@@H](NC(=O)[C@@H](NC(=O)CN)C(C)C)[C@@H](C)CC)[C@@H](C)CC)C(C)C)CSSC[C@@H]2NC(=O)[C@H](CCCCN)NC(=O)CNC(=O)[C@H](Cc3ccccc3)NC(=O)[C@H](CCCNC(=N)N)NC(=O)[C@H](CCSC)NC(=O)CNC(=O)[C@H](C)NC(=O)[C@H](CCCCN)NC(=O)[C@H](CCCCN)NC(=O)[C@@H]3CSSC[C@@H](C(=O)N[C@H](C(=O)N4CCC[C@H]4C(=O)N[C@@H](CCCCN)C(=O)O)[C@@H](C)O)NC(=O)[C@H](Cc4c[nH]cn4)NC(=O)[C@H](CSSC[C@H](NC(=O)[C@H](CCC(N)=O)NC(=O)[C@H](CCCNC(=N)N)NC(=O)[C@H](CO)NC1=O)C(=O)N[C@@H](CC(C)C)C(=O)N[C@@H](CCC(=O)O)C(=O)N1CCC[C@H]1C(=O)N3)NC(=O)[C@H](CCCCN)NC(=O)CNC(=O)[C@H](CC(N)=O)NC(=O)[C@H](CCSC)NC2=O [K7R] (H-GVIINVRCKISRQCLEPCKKAGMRFGKCMNGKCHCTPK-OH; disulfide 8-28, 14-33, 18-35) | 71 pM | 78 pM

From patent US7820623B2 (priority 2006, dated 2010)
